The results in this text go back to patent EP0456418B1, “Treatment of clostridium difficile diarrhoea and pseudomembranous colitis” (KABUSHIKI KAISHA MIYARISAN SEIBUTSU IGAKU KENKYUSHO, priority 1990, dated 1991).

The assay relates to Clostridium difficile. Put plainly: Recurring Clostridium difficile diarrhoea model induced by CFT in golden hamsters. Type of assay: in vivo.
[1] abbreviates: B group: six + 14 doses of VCM, 48 hours after termination of vancomycin.

“Also recorded” adds a separate entry of the source.

With `CN[C@H](CC(C)C)C(=O)N[C@H]1C(=O)N[C@@H](CC(N)=O)C(=O)N[C@H]2C(=O)N[C@H]3C(=O)N[C@H](C(=O)N[C@H](C(=O)O)c4cc(O)cc(O)c4-c4cc3ccc4O)[C@H](O)c3ccc(c(Cl)c3)Oc3cc2cc(c3O[C@@H]2O[C@H](CO)[C@@H](O)[C@H](O)[C@H]2O[C@H]2C[C@](C)(N)[C@H](O)[C@H](C)O2)Oc2ccc(cc2Cl)[C@H]1O` [vancomycin], under setting [1], the “faecal state compared with A group” value is recorded as “improvement in the faecal state” and the “ratio of Clostridium difficile detection” value is “one out of five”. The faecal state result (six doses of vancomycin) is given as “discernible improvement in the faecal state”. Also, under “six doses of vancomycin (3 days administration), detection limit 400CFu/g faeces”, the “culture of Clostridium difficile from faeces” value is “not so effective as to show negative culture; also recorded: positive culture”. Also, the “culture of Clostridium difficile” value (vancomycin continued for a total of 10 days) was “negative culture”.
